# Measurements: patent US20060089260A1, “Nitrification inhibitor treatment of grazed pasture soils” (priority 2002, published 2006)
# Where “and” joins values, the source holds several entries; their conditions need not be identical. Equal values may be shown once.
# Columns and labels:
# [1] = system: nitrification in soil (oxidation of NH4+ to NO2−); assay: Nitrous oxide emissions from urine-treated lysimeters, closed chamber method; details: for Total nitrous oxide emission: urine + DCD, standard error of the mean in brackets; for Nitrous oxide (N2O) emissions: with DCD
# Description: Nitrous oxide emissions from two treatments were determined using a closed chamber method. The enclosed chamber was fitted on top of the lysimeters inside a rubber ring on top of the lysimeter casing. At each sampling time, 3 samples, 10-15 minutes apart, were taken. Nitrous oxide was analysed using gas chromatography and daily N2O fluxes were calculated based on daily mean temperatures.
# [2] = system: nitrification in soil (oxidation of NH4+ to NO2−); assay: Lysimeter study of NO3−-N leaching from grazed dairy pasture soil (Lismore stony silt loam); details: for Total annual NO3−-N leaching loss: lysimeter
# Source text: (§1) Lysimeter studies, which are state-of-the-art technology for these investigations, have shown the effectiveness of a nitrification inhibitor, dicyandiamide (DCD), in reducing NO3^−—N leaching from a grazed dairy pasture under irrigation. This example used a free-draining Lismore stony silt loam (Udic Haplustept loamy skeletal) and the pasture was a mixture of perennial ryegrass (Lolium perenne) and white clover (Tifolium repens) but the process is applicable to all temperate soils and animal grazing systems.
# (§2) Undisturbed soil monolith lysimeters, 50 cm diameter and 70 cm deep, were collected following well-established protocols and procedures that ensure there is minimal disturbance to the soil structure inside. The lysimeters were transported to a lysimeter facility near Lincoln University, using a specially designed trailer with air-bag suspension to minimize disturbance. The gap between the soil core and the metal casing was sealed using petroleum jelly to stop edge-flow effects. The lysimeters were then installed in the field lysimeter facility with the surface of the lysimeters at the same level as that of the surrounding soil surface, in order to maintain normal plant growing conditions.
# (§3) Each treatment had 4 replicates. The treatments were allocated to the lysimeters in a randomised design. The urea application rate of 200 kg N ha^−1 y^−1 was at the higher end of fertilizer N application rates for most farmers in the region. The rates of urea were either split into 8 applications to maximize N efficiency, or 4 applications as a cost cutting measure (i.e. reducing application costs). Urine was applied either in the spring (November) or in the autumn (April) to simulate urine patches deposited in the spring or autumn by a grazing dairy cow. The urine application rate of 1000 kg N ha^−1 was equivalent to the typical N loading rate under a cow urine patch. The combination of urea with urine treatments was included to represent a situation where urea was applied throughout the paddock, and patches of the paddock received cow urine. Two rates of phosphate (P) fertilizer were applied, 45 or 90 kg P ha^−1 y^−1, to represent the range of P application rates used by local dairy farmers. As the purpose of this study was to determine the effectiveness of DCD in reducing NO3^− leaching from grazed pasture soil including cow urine patch areas, DCD was either applied or withheld. The DCD was applied in a liquid form to simulate application in the irrigation water on irrigated dairy farms or by spray vehicle.
# Urea was applied in solid form and was broadcast over the surface of the lysimeters followed by 10 mm of irrigation.
# Fresh urine was collected early in the morning during the milking session from Friesian cows, and was analysed and applied to the lysimeters on the same day.
# (§4) DCD was applied in solution form (100 mL per lysimeter) at the rates of 7.5 kg ha^−1 after each urea application in the same day, or 15 kg ha^−1 immediately after each urine application. The DCD solution was sprayed onto the lysimeters with a watering can, simulating an application by an irrigator or spray vehicle.
# (§5) From November to April (late spring to mid autumn), flood irrigation, at 100 mm, was applied to all the lysimeters at about three weekly intervals. The amount of water applied was to represent the average amount of water applied on commercial flood-irrigated dairy farms. Irrigation water was applied using an electronically controlled metering system to deliver the required volume of water to the lysimeters. From May to October (late autumn to mid spring), simulated rainfall was applied at the end of each month (if necessary), to supplement the natural rainfall received in order to equal the 75th percentile of local rainfall records for the same period of the year. This was done to create a so-called ‘worst case scenario’ in terms of rainfall inputs and to ensure a standard condition was achieved.
# [3] = system: pasture, mixture of perennial ryegrass (Lolium perenne) and white clover (Tifolium repens); assay: Lysimeter study of pasture yield and pasture N off-take; details: for Increase in pasture yields: lysimeters
# Source text: as §1, §3, §4
# The herbage was cut periodically to simulate typical grazing practice. All the harvested herbage was removed and dry matter yield recorded. Herbage nitrogen content was analysed. Following each herbage cut, a specially designed mechanical cow hoof was used to simulate cow treading on the lysimeters. The mechanical hoof is made of stainless steel with identical shape and size as an adult Friesian cow hoof. The hoof is mounted onto a compressed air-ram, which is driven by an air compressor system to provide a treading pressure of 220 kPa to simulate the treading pressure exerted by a cow's hoof during walking. The entire surface of the lysimeters was trodden once following each herbage cut. This was based on the inventors observation of hoof print coverage following each grazing rotation.
# grazed dairy pasture = assay: Field plot experiment on Temuka soil, pasture response to DCD; details: for Pasture yield: with DCD applied
# Description: A field plot experiment was established on a Temuka soil on the Lincoln University Dairy farm to determine pasture response to DCD applications. A total of six plots, each 100 m^2 in area were set up. Fresh cow urine was collected from dairy cows and was analysed for N concentration. The urine was then applied to eight areas (0.2 m^2 each) within each plot to simulate urine patches deposited by the grazing cow. Urea was applied to the plots as per the rest of the farm at 200 kg N/ha. Phosphate fertilizer (superphosphate) was applied at 45 kg P/ha per year as per the rest of the dairy farm.
# Three of the plots received the DCD treatment DCD was applied in a solution form to the whole area of each plot by spray equipment similar to those used to spray other agrochemicals. The DCD was applied twice each year (one in the autumn (May) and one in the spring (August)) at 10-15 kg/ha for each application.
# Spray irrigation was applied between spring and autumn when necessary through a central pivot irrigator as per the rest of the dairy farm. Pasture from the simulated urine patch areas and from adjacent non-urine patch areas was cut and removed. Following the pasture cut, the plots were then grazed by dairy cows.
# Dry matter yield was recorded from the urine patch and non-urine patch areas (Table 2). Pasture yield was calculated at the paddock scale as described above (Table 2).
# nitrification in soil [4] = details: cited from earlier work
# [5] = system: nitrification in soil (oxidation of NH4+ to NO2−); assay: Potassium, calcium and magnesium leaching losses, paddock-averaged; details: calculated paddock average
# Source text: as §1, §2, §3, §4, §5
# nitrification in soil [6] = details: cited from earlier work; remark: listed apart in the source
structure (smiles),measurement,setting,value
"N#CN=C(N)N [DCD, dicyandiamide]",Total nitrous oxide emission,"[1]; autumn application, 26.7 (5.9) without DCD",7.0 (2.3) kg N2O/ha
same,Total nitrous oxide emission,"[1]; spring application, 18.0 (2.9) without DCD",4.5 (0.7) kg N2O/ha
same,Nitrous oxide (N2O) emissions,"[1]; spring urine application, 18.0 without DCD",4.5 kg N2O—N ha−1
same,Nitrous oxide (N2O) emissions,"[1]; urine application in autumn, 26.7 without DCD",7.0 kg N2O—N
same,"Reduction of NO3−-N leaching, annual average",[2]; average of autumn and spring urine,59%
same,Paddock averaged NO3−-N concentration in the drainage water,"[2]; calculated paddock average, urea 200 + grazing, urine patches 25% of paddock, DCD applied",7.7 mg N L−1
same,Leaching losses from paddock (annual NO3−-N),"[2]; calculated paddock average, urea 200 kg N ha−1 y−1 + grazing, urine patches 25% of paddock (3 cows per ha), DCD applied",46 kg N ha−1 y−1 and 46.1 kg N ha−1 y−1
same,Total annual NO3−-N leaching loss,"[2]; autumn urine, P 90 treatment, with DCD (Treatment 6), 488 without DCD",112 kg N ha−1 y−1
same,Total annual NO3−-N leaching loss,"[2]; urine 1000 kg N ha−1 applied in autumn, with DCD (Treatment 4), 516 without DCD",128 kg N ha−1 y−1
same,Total annual NO3−-N leaching loss,"[2]; urine applied in spring, with DCD (Treatment 8), 397 without DCD",230 kg N ha−1 y−1
same,Reductions in the amount of urine N leached,[2]; span spring to autumn urine application,42.1-76.1%
same,Reduction of NO3−-N leaching,"[2]; urine-N applied in the autumn, average",76% and 76.1%
same,Reduction of NO3−-N leaching,[2]; urine-N applied in the spring,42% and 42.1%
same,Increase in pasture N off-take,[3]; autumn urine treatments,23%
same,"Increase in pasture N off-take, annual average",[3]; average of autumn and spring,16%
same,Increase in pasture yields,"[3]; autumn urine treatments, average",49%
same,Increase in pasture yields,[3]; spring urine treatments,17.5%
same,Increase in pasture N off-take,[3]; spring urine treatments,9%
same,Annual average increase in pasture production,[3]; treating the whole surface area with DCD,more than 15%
same,Pasture production,"[3]; with DCD, 11.4 without DCD",15.0 t ha−1 y−1
same,Paddock averaged pasture yield,"grazed dairy pasture; field plots, Temuka soil, calculated paddock average, with DCD, 11.1 without DCD",13.0 t ha−1 y−1
same,Pasture yield,"grazed dairy pasture; field plots, Temuka soil, non-urine patch areas, 10.3 without DCD",12.3 t ha−1 y−1
same,Pasture yield,"grazed dairy pasture; field plots, Temuka soil, urine patch areas, 13.4 without DCD",15.1 t ha−1 y−1
same,Increase of pasture production from the whole of the grazed pasture,"grazed dairy pasture; paddock average, Table 2",more than 15%
same,Response in pasture yield or N uptake to DCD application,"nitrification in soil [4]; dairy cattle urine patches, field",no significant response
same,Effect on nitrification rate in the soil,nitrification in soil [4]; measured in the field,slowed down the nitrification rate in the soil
same,"% decrease due to DCD, calcium (Ca2+) leaching",[5],50%
same,"% decrease due to DCD, magnesium (Mg2+) leaching",[5],52%
same,"% decrease due to DCD, potassium (K+) leaching",[5],65%
same,"Leaching losses of magnesium (Mg2+), with DCD","[5]; 25% of area urine patches, 17 without DCD",8 kg ha−1y−1
same,"Leaching losses of potassium (K+), with DCD","[5]; 25% of area urine patches, 48 without DCD",17 kg ha−1y−1
same,"Leaching losses of calcium (Ca2+), with DCD","[5]; 25% of area urine patches, 213 without DCD",107 kg ha−1y−1
same,Reduction in N leached achieved by applying DCD,"nitrification in soil [6]; DCD added to dairy farm effluent, repeated, high effluent-N loadings during winter",not sufficient to avert high N losses and environmental damage
same,Reduction in the amount of NO3−-N leached,nitrification in soil [6]; DCD combined with farm dairy effluent (dirty water),18%
